Results: patent publication US8193351B2, “HSP90 inhibitor” (Chugai Seiyaku Kabushiki Kaisha, priority 2006, dated 2012)

How the values were obtained:
Human HSP90 alpha = target: T1, Human HSP90 alpha (Homo sapiens, UniProt P07900); assay: Measurement of HSP90 enzyme inhibitory activity (ATPase, malachite green); type: biochemical; conditions: purified human HSP90 alpha, 1 mM ATP added, 37° C., two hours; read-out: Enzyme inhibitory activity (IC50, μM) Human HSP 90α
T1 construct: made in house; host or cells: E. coli BL21 codon plus (Stratagene)
Protocol: HSP90 enzyme inhibitory activity of the compounds of the present invention represented by formula (1) was measured by the following method. Among the 6-phenyl-N-phenyl-(1,3,5)triazin/(1,3)pyrimidin-2,4-diamine derivatives which are known LPAAT-β inhibitors, the following two compounds were used as comparative compounds, and their HSP90 enzyme inhibitory activities were measured similarly by the following method.
Introduction of pETHuHSP90a into E. coli (BL21 codon plus; Stratagene) was followed by O/N incubation in the presence of 0.1 mM IPTG, and the collected E. coli cells were disrupted by ultrasonication in a Lysis buffer (50 mM Tris-HCl (pH8.0), 10 mM MgCl2, 0.1% Triton X-100, Protease inhibitor cocktail tablets (Roche Diagnostics)). The cell lysate solution was centrifuged (10,000 rpm×30 minutes), and the supernatant obtained after centrifugation was used as a crude extract. The crude extract was fractionated using HisPrep FF column and HiTrap Q column (Amersham) to prepare a purified enzyme solution.
An enzyme solution for assays was prepared by dilution of the purified enzyme solution using an assay buffer (50 mM Tris HCl pH7.6, 20 mM KCl, 5 mM MgCl2).
10 μL each of various concentrations of the test substances (10% DMSO solution) was added to each well, and for the positive control wells, 10 μL of 10% DMSO was added. 10 μL of 10% DMSO was also added to the negative control well.
10 μL of 1 mM ATP was added to all of the wells, and the reaction was carried out at 37° C. for two hours.

HCT116 cells = assay: Measurement of cell growth inhibition (Cell Counting Kit-8, four days); type: cell-based; conditions: Homo sapiens, HCT-116, 96 h; HCT116 colon cancer cell line, four days culture; read-out: Cell growth inhibitory activity (IC50, μM) HCT116
Protocol: Cell growth inhibitory activities of the compounds of the present invention represented by formula (1) were measured by the following method.
Cells were maintained under conditions recommended by the provider of each cell line. Cells suspended in a medium were added to solutions containing various concentrations of the test substance, and the cells were cultured at 37° C. in a 5% CO2 incubator. Four days later, Cell Counting Kit-8 was added, and absorbance measurements were taken following the protocol included in the kit.

IC50 (Human HSP90 alpha)	IC50 (HCT116 cells)	Structure (SMILES)
2.6 µM	0.66 µM	CC(=O)NCCSc1nc(N)nc(-c2cc(-c3ncccn3)c(Cl)cc2Cl)n1 [Example 25, N-{2-[4-amino-6-(2,4-dichloro-5-pyrimidin-2-yl-phenyl)-[1,3,5]triazin-2-ylsulfanyl]-ethyl}-acetamide]
1.4 µM	6.1 µM	COc1ccc(Oc2nc(N)nc(-c3c(Cl)cc4c5c(cccc35)COC4)n2)cc1OC [Example 82, 4-(5-chloro-1H,3H-benzo[de]isochromen-6-yl)-6-(3,4-dimethoxyphenoxy)-[1,3,5]triazin-2-ylamine]
1.5 µM	1.1 µM	N#CCOc1cc(-c2cc(Sc3nc4ccccc4[nH]3)nc(N)n2)c(Cl)cc1Cl [Example 54, {5-[2-amino-6-(1H-benzimidazol-2-ylsulfanyl)-pyrimidin-4-yl]-2,4-dichlorophenoxy}-acetonitrile]
1.8 µM	0.16 µM	NC(=O)CCCSc1cc(-c2c(Cl)cc3c4c(cccc24)COC3)nc(N)n1 [Example 324, 4-[2-amino-6-(5-chloro-1H,3H-benzo[de]isochromen-6-yl)-pyrimidin-4-ylsulfanyl]-butylamide]
2 µM	0.74 µM	N#CCOc1cc(-c2nc(N)nc(SCCC(=O)N3CCOCC3)n2)c(Cl)cc1Cl [Example 63, {5-[4-amino-6-(3-morpholin-4-yl-3-oxo-propylsulfanyl)-[1,3,5]triazin-2-yl]-2,4-dichlorophenoxy}-acetonitrile]
1.5 µM	0.12 µM	CC(CSc1nc(N)nc(-c2c(Cl)cc3c4c(cccc24)COC3)n1)C(=O)NCCO (stereo not drawn) [Example 338, 3-[4-amino-6-(5-chloro-1H,3H-benzo[de]isochromen-6-yl)-[1,3,5]triazin-2-ylsulfanyl]-N-(2-hydroxy-ethyl)-2-methyl-propionamide]
3.3 µM	0.12 µM	Nc1nc(SCCCO)nc(-c2c(Cl)cc3c4c(cccc24)COC3)n1 [Example 340, 3-[4-amino-6-(5-chloro-1H,3H-benzo[de]isochromen-6-yl)-[1,3,5]triazin-2-ylsulfanyl]-propan-1-ol]
2.2 µM	14.5 µM	COc1ccc(OC)c(Sc2cc(-c3ccc(OCCCO)cc3C)nc(N)n2)c1 [Example 44, 3-{4-[2-amino-6-(2,5-dimethoxyphenylsulfanyl)-pyrimidin-4-yl]-3-methylphenoxy}-propan-1-ol]
1.9 µM	0.38 µM	N#CCNC(=O)CSc1nc(N)nc(-c2c(Cl)cc3c4c(cccc24)COC3)n1 [Example 333, 2-[4-amino-6-(5-chloro-1H,3H-benzo[de]isochromen-6-yl)-[1,3,5]triazin-2-ylsulfanyl]-N-cyano methyl-acetamide]
2 µM	0.35 µM	COc1cc(C(=O)N2CCN(C)CC2)ccc1Sc1nc(N)nc(-c2cc(OCC#N)c(Cl)cc2Cl)n1 [Example 15, (5-{4-amino-6-[2-methoxy-4-(4-methyl-piperazin-1-carbonyl)-phenylsulfanyl]-[1,3,5]triazin-2-yl}-2,4-dichlorophenoxy)-acetonitrile]
2.5 µM	42.9 µM	COc1ccc(OC)c(Sc2cc(-c3cc(OCc4ccccc4)c(Cl)cc3Cl)nc(N)n2)c1 [Example 48, 4-(5-benzyloxy-2,4-dichlorophenyl)-6-(2,5-dimethoxyphenylsulfanyl)-pyrimidin-2-ylamine]
2.2 µM	0.47 µM	NC(=O)NCCSc1cc(-c2c(Cl)cc3c4c(cccc24)COC3)nc(N)n1 [Example 332, {2-[2-amino-6-(5-chloro-1H,3H-benzo[de]isochromen-6-yl)-pyrimidin-4-ylsulfanyl]-ethyl}-urea]
1.7 µM	0.08 µM	CNC(=O)C(C)CSc1cc(-c2c(Cl)cc3c4c(cccc24)COC3)nc(N)n1 (stereo not drawn) [Example 322, 3-[2-amino-6-(5-chloro-1H,3H-benzo[de]isochromen-6-yl)-pyrimidin-4-ylsulfanyl]-2,N-dimethyl-propionamide]
1.2 µM	8.5 µM	Nc1nc(SCc2ccccc2)nc(-c2cc(OCc3ccccc3)c(Cl)cc2Cl)n1 [Example 4, 4-(5-benzyloxy-2,4-dichlorophenyl)-6-benzylsulfanyl[1,3,5]triazin-2-ylamine]
1.3 µM	0.16 µM	COCCNC(=O)CCSc1nc(N)nc(-c2c(Cl)cc3c4c(cccc24)COC3)n1 [Example 334, 3-[4-amino-6-(5-chloro-1H,3H-benzo[de]isochromen-6-yl)-[1,3,5]triazin-2-ylsulfanyl]-N-(2-methoxy-ethyl)-propionamide]
1.7 µM	5.3 µM	CCOC(=O)c1cnc(Sc2cc(-c3cc(OCC#N)c(Cl)cc3Cl)nc(N)n2)[nH]1 [Example 55, 2-[2-amino-6-(2,4-dichloro-5-cyanomethoxyphenyl)-pyrimidin-4-ylsulfanyl]-3H-imidazol-4-carboxylic acid ethyl ester]
1.5 µM	8.1 µM	COc1ccc(OC)c(Sc2cc(-c3ccc(OCC(N)=O)cc3C)nc(N)n2)c1 [Example 46, 2-{4-[2-amino-6-(2,5-dimethoxyphenylsulfanyl)-pyrimidin-4-yl]-3-methylphenoxy}-acetamide]
1.5 µM	1.9 µM	Nc1nc(SCCNC(=O)CO)cc(-c2c(Cl)cc3c4c(cccc24)COC3)n1 [Example 331, N-{2-[2-amino-6-(5-chloro-1H,3H-benzo[de]isochromen-6-yl)-pyrimidin-4-ylsulfanyl]-ethyl}-2-hydroxy-acetamide]
1.3 µM	0.41 µM	Nc1nc(SCCC(=O)NCCO)cc(-c2c(Cl)cc3c4c(cccc24)COC3)n1 [Example 317, 3-[2-amino-6-(5-chloro-1H,3H-benzo[de]isochromen-6-yl)-pyrimidin-4-ylsulfanyl]-N-(2-hydroxy-ethyl)-propionamide]
2.8 µM	0.11 µM	CC(=O)NCCCSc1nc(N)nc(-c2c(Cl)cc3c4c(cccc24)COC3)n1 [Example 149, N-{3-[4-amino-6-(5-chloro-1H,3H-benzo[de]isochromen-6-yl)-[1,3,5]triazin-2-ylsulfanyl]-propyl}-acetamide]
2.1 µM	0.26 µM	NC(=O)OCCSc1cc(-c2c(Cl)cc3c4c(cccc24)COC3)nc(N)n1 [Example 325, carbamic acid 2-[2-amino-6-(5-chloro-1H,3H-benzo[de]isochromen-6-yl)-pyrimidin-4-ylsulfanyl]-ethyl ester]
1.1 µM	9.2 µM	Nc1nc(SC2CCCCC2)nc(-c2c(Cl)cc3c4c(cccc24)COC3)n1 [Example 92, 4-(5-chloro-1H,3H-benzo[de]isochromen-6-yl)-6-cyclohexylsulfanyl-[1,3,5]triazin-2-ylamine]
2.1 µM	0.62 µM	COCCNC(=O)CCSc1cc(-c2c(Cl)cc3c4c(cccc24)COC3)nc(N)n1 [Example 319, 3-[2-amino-6-(5-chloro-1H,3H-benzo[de]isochromen-6-yl)-pyrimidin-4-ylsulfanyl]-N-(2-methoxy-ethyl)-propionamide]
1.9 µM	0.24 µM	COc1ccc(OC)c(Sc2nc(N)nc(-c3c(Cl)cc4c5c(cccc35)COC4)n2)c1 [Example 145, 4-(5-Chloro-1H,3H-benzo[de]isochromen-6-yl)-6-(2,5-dimethoxyphenylsulfanyl)-[1,3,5]triazin-2-ylamine]
1.3 µM	0.13 µM	CC(CSc1cc(-c2c(Cl)cc3c4c(cccc24)COC3)nc(N)n1)C(N)=O (stereo not drawn) [Example 321, 3-[2-amino-6-(5-chloro-1H,3H-benzo[de]isochromen-6-yl)-pyrimidin-4-ylsulfanyl]-2-methyl-propionamide]
1.4 µM	4.1 µM	COc1ccc(OC)c(Sc2cc(-c3ccc(OCC#N)cc3C)nc(N)n2)c1 [Example 45, {4-[2-amino-6-(2,5-dimethoxyphenylsulfanyl)-pyrimidin-4-yl]-3-methylphenoxy}-acetonitrile]
1.8 µM	0.015 µM	NC(=O)CCCSc1nc(N)nc(-c2c(Cl)cc3c4c(cccc24)CSC3)n1 [Example 343, 4-[4-amino-6-(5-chloro-1H,3H-2-thia-phenalen-6-yl)-[1,3,5]triazin-2-ylsulfanyl]-butyramide]
33.8 µM		CSc1nc(N)nc(-c2ccccc2)n1 [4-methylsulfanyl-6-phenyl-[1,3,5]triazin-2-ylamine, reference compound]
2.1 µM	0.93 µM	CC(=O)NCCSc1cc(-c2c(Cl)cc3c4c(cccc24)COC3)nc(N)n1 [Example 327, N-{2-[2-amino-6-(5-chloro-1H,3H-benzo[de]isochromen-6-yl)-pyrimidin-4-ylsulfanyl]-ethyl}-acetamide]
